{"source": "patent US6624294B2", "about": "“Regioselective synthesis of 2′-O-modified nucleosides” (ISIS Pharmaceuticals, Inc., priority 1999, dated 2003)", "origin": "cited, not measured here"}
{"details": "hydroxylamino function"}
{"compound": "CON", "note": "[MeONH2]", "pKa": 4.2}
{"compound": "CON(C)C", "note": "[MeONHMe2]", "pKa": 3.65}
{"compound": "CNOC", "note": "[MeONHMe]", "pKa": 4.75}
